PubChem BioAssay (NCI)
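GI50 = concentration required for 50% inhibition of growth. The concentration for full growth arrest is given as TGI.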

Legend:
Assay in all cases: NCI tumour cell line growth inhibition, 384-well format
PC-3 prostate = test system: PC-3 prostate
NCI/ADR-RES ovarian = test system: NCI/ADR-RES ovarian
MDA-MB-468 breast = test system: MDA-MB-468 breast
RXF 393 renal = test system: RXF 393 renal
SNB-19 CNS = test system: SNB-19 CNS
RPMI-8226 leukemia = test system: RPMI-8226 leukemia
SF-539 CNS = test system: SF-539 CNS
SK-OV-3 ovarian = test system: SK-OV-3 ovarian
UACC-257 melanoma = test system: UACC-257 melanoma
HT29 colon = test system: HT29 colon
A498 renal = test system: A498 renal
IGROV1 ovarian = test system: IGROV1 ovarian
UO-31 renal = test system: UO-31 renal
U251 glioblastoma = test system: U251 glioblastoma
K-562 leukemia = test system: K-562 leukemia
MCF7 breast = test system: MCF7 breast
SK-MEL-2 melanoma = test system: SK-MEL-2 melanoma
786-0 renal = test system: 786-0 renal
HCT-116 colon = test system: HCT-116 colon
M14 melanoma = test system: M14 melanoma
MALME-3M melanoma = test system: MALME-3M melanoma
HS 578T breast = test system: HS 578T breast
MDA-MB-231 breast = test system: MDA-MB-231 breast
NCI-H226 lung = test system: NCI-H226 lung
SF-295 CNS = test system: SF-295 CNS
OVCAR-8 ovarian = test system: OVCAR-8 ovarian
MDA-MB-435 melanoma = test system: MDA-MB-435 melanoma
NCI-H322M lung = test system: NCI-H322M lung
LOX IMVI melanoma = test system: LOX IMVI melanoma
CAKI-1 renal = test system: CAKI-1 renal
KM12 colon = test system: KM12 colon
ACHN renal = test system: ACHN renal
UACC-62 melanoma = test system: UACC-62 melanoma
EKVX NSCLC = test system: EKVX NSCLC
SNB-75 CNS = test system: SNB-75 CNS
CCRF-CEM leukemia = test system: CCRF-CEM leukemia
BT-549 breast = test system: BT-549 breast
TK-10 renal = test system: TK-10 renal
DU-145 prostate = test system: DU-145 prostate
NCI-H23 lung = test system: NCI-H23 lung
SN12C renal = test system: SN12C renal
SK-MEL-28 melanoma = test system: SK-MEL-28 melanoma
OVCAR-5 ovarian = test system: OVCAR-5 ovarian
T-47D breast = test system: T-47D breast
HOP-62 NSCLC = test system: HOP-62 NSCLC
HOP-92 NSCLC = test system: HOP-92 NSCLC
A549 NSCLC = test system: A549 NSCLC
HCT-15 colon = test system: HCT-15 colon
MOLT-4 leukemia = test system: MOLT-4 leukemia
SF-268 CNS = test system: SF-268 CNS
HL-60(TB) leukemia = test system: HL-60(TB) leukemia
OVCAR-4 ovarian = test system: OVCAR-4 ovarian
NCI-H522 lung = test system: NCI-H522 lung
SW-620 colon = test system: SW-620 colon
OVCAR-3 ovarian = test system: OVCAR-3 ovarian

For `CN(N=O)C(=O)N[C@@H](C=O)[C@@H](O)[C@H](O)[C@H](O)CO`, the GI50 (PC-3 prostate) was over 100 µM, the TGI (PC-3 prostate) was over 100 µM and the GI50 (NCI/ADR-RES ovarian) was over 100 µM. It also gave a TGI (NCI/ADR-RES ovarian) of over 100 µM, a GI50 (MDA-MB-468 breast) of over 100 µM and a TGI (MDA-MB-468 breast) of over 100 µM. For the same molecule, the GI50 (RXF 393 renal) was over 100 µM, the TGI (RXF 393 renal) was over 100 µM and the GI50 (SNB-19 CNS) was over 100 µM. It also gave a TGI (SNB-19 CNS) of over 100 µM, a GI50 (RPMI-8226 leukemia) of over 100 µM and a TGI (RPMI-8226 leukemia) of over 100 µM. The GI50 (SF-539 CNS) was over 100 µM, the TGI (SF-539 CNS) was over 100 µM and the GI50 (SK-OV-3 ovarian) was over 100 µM. The TGI (SK-OV-3 ovarian) was over 100 µM, the GI50 (UACC-257 melanoma) was over 100 µM and the TGI (UACC-257 melanoma) was over 100 µM. For the same molecule, the GI50 (HT29 colon) was over 100 µM, the TGI (HT29 colon) was over 100 µM and the GI50 (A498 renal) was over 100 µM. It also gave a TGI (A498 renal) of over 100 µM, a GI50 (IGROV1 ovarian) of over 100 µM and a TGI (IGROV1 ovarian) of over 100 µM. The GI50 (UO-31 renal) was over 100 µM, the TGI (UO-31 renal) was over 100 µM and the GI50 (U251 glioblastoma) was over 100 µM. For the same molecule, the TGI (U251 glioblastoma) was over 100 µM, the GI50 (K-562 leukemia) was over 100 µM and the TGI (K-562 leukemia) was over 100 µM. It also gave a GI50 (MCF7 breast) of over 100 µM, a TGI (MCF7 breast) of over 100 µM and a GI50 (SK-MEL-2 melanoma) of over 100 µM. It also gave a TGI (SK-MEL-2 melanoma) of over 100 µM, a GI50 ([…]-0 renal) of over 100 µM and a TGI (786-0 renal) of over 100 µM. It also gave a GI50 (HCT-116 colon) of over 100 µM, a TGI (HCT-116 colon) of over 100 µM and a GI50 (M14 melanoma) of over 100 µM. For the same molecule, the TGI (M14 melanoma) was over 100 µM, the GI50 (MALME-3M melanoma) was over 100 µM and the TGI (MALME-3M melanoma) was over 100 µM. It also gave a GI50 (HS 578T breast) of over 100 µM, a TGI (HS 578T breast) of over 100 µM and a GI50 (MDA-MB-231 breast) of over 100 µM. The TGI (MDA-MB-231 breast) was over 100 µM, the GI50 (NCI-H226 lung) was over 100 µM and the TGI (NCI-H226 lung) was over 100 µM. It also gave a GI50 (SF-295 CNS) of over 100 µM, a TGI (SF-295 CNS) of over 100 µM and a GI50 (OVCAR-8 ovarian) of over 100 µM. For the same molecule, the TGI (OVCAR-8 ovarian) was over 100 µM, the GI50 (MDA-MB-435 melanoma) was over 100 µM and the TGI (MDA-MB-435 melanoma) was over 100 µM. It also gave a GI50 (NCI-H322M lung) of over 100 µM, a TGI (NCI-H322M lung) of over 100 µM and a GI50 (LOX IMVI melanoma) of over 100 µM. The TGI (LOX IMVI melanoma) was over 100 µM, the GI50 (CAKI-1 renal) was over 100 µM and the TGI (CAKI-1 renal) was over 100 µM. It also gave a GI50 (KM12 colon) of over 100 µM, a TGI (KM12 colon) of over 100 µM and a GI50 (ACHN renal) of over 100 µM. For the same molecule, the TGI (ACHN renal) was over 100 µM, the GI50 (UACC-62 melanoma) was over 100 µM and the TGI (UACC-62 melanoma) was over 100 µM. The GI50 (EKVX NSCLC) was over 100 µM, the TGI (EKVX NSCLC) was over 100 µM and the GI50 (SNB-75 CNS) was over 100 µM. It also gave a TGI (SNB-75 CNS) of over 100 µM, a GI50 (CCRF-CEM leukemia) of over 100 µM and a TGI (CCRF-CEM leukemia) of over 100 µM. The GI50 (BT-549 breast) was over 100 µM, the TGI (BT-549 breast) was over 100 µM and the GI50 (TK-10 renal) was over 100 µM. For the same molecule, the TGI (TK-10 renal) was over 100 µM, the GI50 (DU-145 prostate) was over 100 µM and the TGI (DU-145 prostate) was over 100 µM. For the same molecule, the GI50 (NCI-H23 lung) was over 100 µM, the TGI (NCI-H23 lung) was over 100 µM and the GI50 (SN12C renal) was over 100 µM. It also gave a TGI (SN12C renal) of over 100 µM, a GI50 (SK-MEL-28 melanoma) of over 100 µM and a TGI (SK-MEL-28 melanoma) of over 100 µM. For the same molecule, the GI50 (OVCAR-5 ovarian) was over 100 µM, the TGI (OVCAR-5 ovarian) was over 100 µM and the GI50 (T-47D breast) was over 100 µM. For the same molecule, the TGI (T-47D breast) was over 100 µM, the GI50 (HOP-62 NSCLC) was over 100 µM and the TGI (HOP-62 NSCLC) was over 100 µM. It also gave a GI50 (HOP-92 NSCLC) of over 100 µM, a TGI (HOP-92 NSCLC) of over 100 µM and a GI50 (A549 NSCLC) of over 100 µM. The TGI (A549 NSCLC) was over 100 µM, the GI50 (HCT-15 colon) was over 100 µM and the TGI (HCT-15 colon) was over 100 µM. The GI50 (MOLT-4 leukemia) was over 100 µM, the TGI (MOLT-4 leukemia) was over 100 µM and the GI50 (SF-268 CNS) was over 100 µM. For the same molecule, the TGI (SF-268 CNS) was over 100 µM, the GI50 (HL-60(TB) leukemia) was over 100 µM and the TGI (HL-60(TB) leukemia) was over 100 µM. For the same molecule, the GI50 (OVCAR-4 ovarian) was over 100 µM, the TGI (OVCAR-4 ovarian) was over 100 µM and the GI50 (NCI-H522 lung) was over 100 µM. It also gave a TGI (NCI-H522 lung) of over 100 µM, a GI50 (SW-620 colon) of over 100 µM and a TGI (SW-620 colon) of over 100 µM. For the same molecule, the GI50 (OVCAR-3 ovarian) was over 100 µM and the TGI (OVCAR-3 ovarian) was over 100 µM.
